Assay results: patent publication US10705094B2, “TNF receptor signaling modulator assay” (UCB Biopharma SRL, priority 2015, dated 2020)

Assays:
[1] = target: T1, TNFα binding to the TNF receptor (TNFR-ECD) (Homo sapiens, UniProt P01375); assay: Meso Scale Discovery (MSD) assay of TNFα binding to plate-coated TNFR-ECD; details: MSD assay, TNF 2 ng/ml, 5% DMSO; read-out: EC50 (enhanced binding of TNFα to immobilised ECD-TNFR)
T1 construct: purchased R&D Systems
Experimental: 384 well uncoated plates (standard binding) Meso Scale Discovery plates (MSD) were coated overnight with the extracellular domain of TNFR (TNFR-ECD) (10 μl, 1 ug/mL in PBS). To ensure even distribution plates were centrifuged at 1000 rpm for 2 minutes. The plates were then sealed and stored at +4° C. overnight.
The wells of the plates were then washed three times in 50 μl phosphate buffered saline pH 6.5 (PB) with 0.05% Tween 20 (wash buffer), and then blocked with 50 μl 2% BSA. The plates were then incubated at room temperature on a shaker (600 rpm) for 2 hours. After this incubation plates were washed (3×50 μl wash buffer per well).
During the blocking incubation, compounds of formulae (1) and (2) were pre-incubated with TNF (R&D Systems) prior to addition to the pre-blocked and washed MSD plates. For a single point assay as shown in FIG. 3A the compounds were assayed at a final concentration of 100 μM (5% final v/v DMSO).
Pre-diluted compounds of formulae (1) and (2) were added at a ratio of 1:1 to 4 ng/mL TNF (final concentration 2 ng/ml), and then incubated at room temperature on a shaker 600 rpm for 1 hour.
10 μl of pre-incubated mixtures of compound of formulae (1) or (2) with TNFα were added to the prepared MSD plate and incubated at room temperature on a shaker for 1 hour.
The plates were then washed with wash buffer (3×50 μl per well). Sulfo-tagged anti-TNF polyclonal antibody was then added to each well and the plates incubated for a further 1.5 hours at room temperature on a shaker.
The plates were then washed (3×50 μl wash buffer per well), followed by the addition of 50 μl MSD Read buffer T plus surfactant (diluted 1 in 2 in H2O) and read on a SECTOR Imager 6000.
For single point assays percentage inhibition was calculated using a control sample without compound.
For EC50s determination results were calculated by standard means using a 4 parameter logistic model (sigmoidal dose response model).

TNFα = TNFα (Homo sapiens, UniProt P01375); assay: L929 murine fibrosarcoma cell-killing (neutralisation) assay; type: cell-based, mouse; parameters: host or cells: added to L929 murine fibrosarcoma cells (ECACC, 85011425); details: L929 cells; read-out: IC50 (inhibition of cell killing activity of human TNFα)
Experimental: The L929 neutralisation assays were carried out using the protocol disclosed in Baarsch M J J et al (Immunol Methods 1991; 140: 15-22) and Galloway C J et al J (Immunol Methods 1991; 140: 37-43).
Briefly, L929 cells (ECACC, 85011425) were cultured in culture medium consisting of RPMI 1640 (Gibco) containing 10% FCS (PAA), 2 mM glutamine (Gibco), 50 U/ml penicillin (Gibco) and 50 μg/ml streptomycin (Gibco). When they were subcultured, the cells were washed three times with 10 mL Dulbecco's phosphate-buffered saline without calcium and magnesium (Gibco) and 3 ml of trypsin-EDTA (Gibco) was then added for 2 minutes to remove the cells from the flask. Culture medium was added to neutralise the trypsin and the cells pipetted up and down to remove any clumps.
The L929 cells were split 1/2 or 1/3 the day before use and cultured for a further 24 hours. The flasks were then trypsinised as above and 2×10^4 cells in 100 μl were added per well of a 96 well flat-bottomed plate (Becton Dickinson). The plates were cultured for 24 hours before the assay was set up.
Serial dilutions were made from DMSO stocks of the compounds.
The assay medium was the same as culture medium but also contained 1 μg/ml actinomycin D (Sigma). The medium was flicked off the plates and the assay samples plus TNFα, standards and controls were added in 100 μl volumes in duplicate. Plates were incubated for a further 16 hours and then 10 μl per well of a 5 mg/ml methylthiazoletetrazolium (MTT; Sigma) solution in culture medium was added for a further 4 hours. The reaction was stopped by the addition of 100 μl of solubilisation buffer containing 20% sodium dodecyl sulphate (SDS, BDH) dissolved in 50% dimethyl formamide (DMF; BDH) and 50% deionised water.
After overnight incubation at 37° C. to allow the dye to dissolve, the plates were read on a Multiskan EX plate reader (Labsystem) at 570 nm with subtraction at 630 nm. Data were analysed using the Genesis software package.

m-TNFα = target: T2, m-TNFα (Mus musculus, UniProt P06804); assay: Monomer exchange in TNFα trimers by mass spectrometry, compound pre-incubated with mouse TNFα; type: binding; details: for off-rate from m-TNFα: 1:1 complex with m-TNFα mixed with h-TNFα; for cross species monomer subunit exchange: compound preincubated with m-TNFα, then h-TNFα added
T2 sequence (P06804 80-235 limits assumed): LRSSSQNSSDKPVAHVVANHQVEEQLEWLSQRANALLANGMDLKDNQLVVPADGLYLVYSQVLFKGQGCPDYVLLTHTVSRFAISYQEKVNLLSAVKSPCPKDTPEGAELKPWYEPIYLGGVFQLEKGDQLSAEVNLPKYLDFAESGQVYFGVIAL
Experimental: Human and mouse homotrimers of TNFα (H3 and M3 respectively) were incubated together and aliquots of the solution monitored by mass spectrometry appearance of the cross species heterotrimers. The mass spectrometric analysis confirmed that monomer exchange between native TNFα trimers was able to occur in solution. The exchange rate was slow and was monitored over a course of 4 hours before full equilibration was achieved (data not shown). The mechanism is unknown, although is it unlikely to involve formation of the dimeric forms as none of these were observed. Monomer exchange is likely to be occurring between pure human and mouse trimers, the mixing of mouse and human trimers simply makes this exchange visible by mass spectrometry.
The experiment was then repeated in reverse. Excess compound of formula 1 was incubated with Mouse TNFα, the excess compound of formula (1) was then removed. Mass Spectral analysis confirmed that a 1:1 complex had been formed between the compound of formula (1) and m-TNFα. Human TNFα was now added to this sample which was then subjected to mass spectral analysis over a number of hours. […] In addition there was evidence of formation of the ligated human homotrimer (H3L), the unligated mouse homotrimer (M3) and for unbound compound of formula (1) (L). […] Once this complex (M3L) has dissociated, monomer subunit exchange between the H3 and M3 species proceeds and the liberated ligand is then able to form complexes with all 4 trimer species present in solution.

[2] = target: TNFα binding to TNF receptor (ECD-TNFR) (Homo sapiens, UniProt P01375); assay: Biacore in-solution competition/enhancement assay, TNFα/compound mix over immobilised ECD-TNFR; details: Biacore A100/4000, 0.5-1 nM TNFα, highest concentration 20 μM; read-out: EC50 (compound induced enhanced binding of TNFα to TNF receptor)
Experimental: For this purpose a Biacore A100/4000 was used. […] For example a typical assay may use 20 μ[…] solution of compound. […] Control compounds were tested every 10-15 cycles. […] Background subtraction binding curves were analysed using the BIAevaluation software following standard procedures. The EC50 data was determined using a four parameter logistic fit. […] The RU (resonance unit) value for TNFα in the absence of compound was subtracted from the curves so these now show only the increase in binding induced by the compounds. The progress curves plateau at higher RU values as the concentration of compound increases.

| SMILES | EC50 [1] | IC50 (TNFα) | off-rate from m-TNFα (m-TNFα) | cross species monomer subunit exchange (m-TNFα) | EC50 [2] |
| --- | --- | --- | --- | --- | --- |
| Cc1ccc(C)c(Cn2c(C(O)c3ccncc3)nc3ccccc32)c1 (stereo not shown) [Compound (1), [1-(2,5-Dimethylbenzyl)-1H-benzimidazol-2-yl](pyridin-4-yl)methanol] | 4600 nM | 306 nM | measurable off-rate | did not prevent monomer subunit exchange | 298 nM |
| Cc1ccc(C)c(Cn2c(C(O)c3ccncc3)nc3ccc(-c4cnn(C)c4)cc32)c1 (stereo not shown) [Compound (2), [1-(2,5-Dimethylbenzyl)-6-(1-methyl-1H-pyrazol-4-yl)-1H-benzimidazol-2-yl](pyridin-4-yl)methanol] | 3700 nM | 125 nM | no measurable off-rate | no monomer subunit exchange was observed | 280 nM |
